Our source for the % of control, % binding and % of engagement values is ChEMBL document CHEMBL5465560, “Selectivity Literature for EUbOPEN Chemogenomic Library” (2024).

In assay [1] the target is Dual specificity mitogen-activated protein kinase kinase 2 (Homo sapiens) (UniProt P36507). Put plainly: Selectivity interaction (ProQinase) EUB0000171b MAP2K2.
Assay [2] deals with Ribosomal protein S6 kinase alpha-1 (Homo sapiens, UniProt Q15418). The assay can be described thus: Selectivity interaction (Ambit KINOMEscan and KiNATiv profiling in Jurkat cells) EUB0000090b RPS6KA1. In kind it is cell-based. As to conditions: at 1 µM.
Sequence of Ribosomal protein S6 kinase alpha-1 (Q15418 whole entry): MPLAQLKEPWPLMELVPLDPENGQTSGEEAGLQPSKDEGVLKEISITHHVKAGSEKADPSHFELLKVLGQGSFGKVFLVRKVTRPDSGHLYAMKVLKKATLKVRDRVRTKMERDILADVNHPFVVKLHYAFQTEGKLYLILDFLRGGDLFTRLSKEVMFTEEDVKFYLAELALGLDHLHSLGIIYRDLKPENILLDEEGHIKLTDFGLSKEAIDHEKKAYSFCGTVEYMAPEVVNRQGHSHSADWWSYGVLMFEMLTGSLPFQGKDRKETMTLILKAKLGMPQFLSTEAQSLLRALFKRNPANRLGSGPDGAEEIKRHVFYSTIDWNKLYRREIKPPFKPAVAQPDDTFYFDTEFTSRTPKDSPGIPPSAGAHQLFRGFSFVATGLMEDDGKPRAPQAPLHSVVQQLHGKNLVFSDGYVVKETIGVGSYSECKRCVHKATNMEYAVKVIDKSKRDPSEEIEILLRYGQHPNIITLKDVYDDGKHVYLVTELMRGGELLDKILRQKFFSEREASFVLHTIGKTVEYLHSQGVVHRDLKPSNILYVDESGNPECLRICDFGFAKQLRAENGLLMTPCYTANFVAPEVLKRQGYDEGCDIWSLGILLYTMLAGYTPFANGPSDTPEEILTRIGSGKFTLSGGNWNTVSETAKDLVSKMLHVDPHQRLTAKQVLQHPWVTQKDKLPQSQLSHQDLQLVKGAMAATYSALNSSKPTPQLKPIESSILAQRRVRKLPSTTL
Assay [3] addresses T1, Ephrin type-B receptor 4 (Homo sapiens) (UniProt P54760).
T1 sequence (whole entry): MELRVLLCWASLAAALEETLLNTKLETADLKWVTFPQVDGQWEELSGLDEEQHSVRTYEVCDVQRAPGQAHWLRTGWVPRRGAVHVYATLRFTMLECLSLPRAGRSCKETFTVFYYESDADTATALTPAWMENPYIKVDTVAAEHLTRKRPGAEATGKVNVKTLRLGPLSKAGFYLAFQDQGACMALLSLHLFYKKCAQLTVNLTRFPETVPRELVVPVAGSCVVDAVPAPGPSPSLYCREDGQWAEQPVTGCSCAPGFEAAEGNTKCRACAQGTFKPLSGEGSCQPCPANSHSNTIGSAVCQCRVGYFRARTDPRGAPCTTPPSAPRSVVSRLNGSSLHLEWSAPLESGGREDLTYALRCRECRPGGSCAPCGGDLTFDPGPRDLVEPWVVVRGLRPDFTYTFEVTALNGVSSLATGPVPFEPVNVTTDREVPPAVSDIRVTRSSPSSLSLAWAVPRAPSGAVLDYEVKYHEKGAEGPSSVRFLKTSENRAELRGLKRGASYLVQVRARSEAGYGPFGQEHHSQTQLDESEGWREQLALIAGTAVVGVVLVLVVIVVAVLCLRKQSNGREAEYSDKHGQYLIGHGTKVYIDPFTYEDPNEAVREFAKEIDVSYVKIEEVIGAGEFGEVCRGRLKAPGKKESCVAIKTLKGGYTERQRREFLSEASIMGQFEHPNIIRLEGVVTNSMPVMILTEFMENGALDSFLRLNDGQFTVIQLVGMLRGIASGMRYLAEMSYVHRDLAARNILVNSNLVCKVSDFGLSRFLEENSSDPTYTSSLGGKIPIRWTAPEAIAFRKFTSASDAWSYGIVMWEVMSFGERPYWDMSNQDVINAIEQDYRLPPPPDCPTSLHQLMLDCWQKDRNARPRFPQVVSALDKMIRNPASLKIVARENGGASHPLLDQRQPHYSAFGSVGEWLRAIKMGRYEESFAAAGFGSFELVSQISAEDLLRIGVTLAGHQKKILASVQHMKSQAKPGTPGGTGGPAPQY
Put plainly: Selectivity interaction (KinomeScan (DiscoverX)) EUB0001079a EPHB4. The note with it: at 1 µM.

The target of assay [4] is T2, TGF-beta receptor type-1 (Homo sapiens) (UniProt P36897).
T2 sequence (whole entry): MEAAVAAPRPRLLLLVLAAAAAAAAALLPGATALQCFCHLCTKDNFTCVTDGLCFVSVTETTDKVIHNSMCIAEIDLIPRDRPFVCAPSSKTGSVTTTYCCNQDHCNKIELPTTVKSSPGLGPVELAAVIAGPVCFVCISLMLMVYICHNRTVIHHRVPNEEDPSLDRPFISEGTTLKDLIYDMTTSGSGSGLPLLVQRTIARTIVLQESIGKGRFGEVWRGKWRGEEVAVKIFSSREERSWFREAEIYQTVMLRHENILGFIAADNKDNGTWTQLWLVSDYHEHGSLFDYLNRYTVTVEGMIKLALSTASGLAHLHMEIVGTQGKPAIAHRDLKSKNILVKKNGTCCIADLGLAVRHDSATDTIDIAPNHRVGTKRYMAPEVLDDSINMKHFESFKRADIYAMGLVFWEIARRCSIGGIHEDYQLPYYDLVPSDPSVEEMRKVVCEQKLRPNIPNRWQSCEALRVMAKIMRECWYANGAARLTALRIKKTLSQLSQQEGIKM
The assay can be described thus: Selectivity interaction (KinomeScan (DiscoverX)) EUB0000607a TGFBR1. The note with it: at 10 µM.

Assay [5] has as its target Vascular endothelial growth factor receptor 1 (Homo sapiens) (UniProt P17948). The assay can be described thus: Selectivity interaction (KinomeScan (DiscoverX)) EUB0000229b FLT1. The note with it: at 10 µM.
Assay [6] deals with Serine/threonine-protein kinase B-raf (Homo sapiens) (UniProt P15056). The assay can be described thus: (§1) Selectivity interaction (KinomeScan (DiscoverX)) EUB0001619a BRAF. The note with it: at 1 µM.
Sequence of Serine/threonine-protein kinase B-raf (Homo sapiens) (P15056 whole entry): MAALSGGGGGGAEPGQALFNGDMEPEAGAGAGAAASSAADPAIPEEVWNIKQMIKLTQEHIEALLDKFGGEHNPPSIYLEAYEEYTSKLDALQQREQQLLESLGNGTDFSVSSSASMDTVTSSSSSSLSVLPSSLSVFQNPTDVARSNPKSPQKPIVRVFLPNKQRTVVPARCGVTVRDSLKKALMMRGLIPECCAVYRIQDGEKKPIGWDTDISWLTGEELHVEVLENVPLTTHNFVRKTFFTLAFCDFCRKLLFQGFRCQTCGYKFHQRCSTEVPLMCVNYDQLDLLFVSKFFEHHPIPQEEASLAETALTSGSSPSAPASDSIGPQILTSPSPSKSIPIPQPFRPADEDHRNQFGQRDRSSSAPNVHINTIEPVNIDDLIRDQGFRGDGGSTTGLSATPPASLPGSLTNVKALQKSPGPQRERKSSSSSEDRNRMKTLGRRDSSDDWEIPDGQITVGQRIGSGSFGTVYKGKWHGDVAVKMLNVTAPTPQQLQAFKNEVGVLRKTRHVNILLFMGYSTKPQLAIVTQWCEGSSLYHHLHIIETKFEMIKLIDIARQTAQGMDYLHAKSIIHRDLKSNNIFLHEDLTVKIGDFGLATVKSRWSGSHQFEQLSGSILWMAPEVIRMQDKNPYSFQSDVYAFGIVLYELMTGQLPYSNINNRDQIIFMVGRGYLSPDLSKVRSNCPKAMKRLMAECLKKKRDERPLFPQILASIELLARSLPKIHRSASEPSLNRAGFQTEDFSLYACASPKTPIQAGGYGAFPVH
Assay [7] has as its system Serine/threonine-protein kinase B-raf (Homo sapiens), P15056 [V600E]. The assay is described as §1. As to conditions: at 1 µM.
Assay [8] deals with Dual specificity protein kinase CLK2 (Homo sapiens, UniProt P49760). The assay can be described thus: Selectivity interaction (KinomeScan (DiscoverX)) EUB0001619a CLK2. As to conditions: at 1 µM.
Sequence of Dual specificity protein kinase CLK2 (P49760 whole entry, looked up): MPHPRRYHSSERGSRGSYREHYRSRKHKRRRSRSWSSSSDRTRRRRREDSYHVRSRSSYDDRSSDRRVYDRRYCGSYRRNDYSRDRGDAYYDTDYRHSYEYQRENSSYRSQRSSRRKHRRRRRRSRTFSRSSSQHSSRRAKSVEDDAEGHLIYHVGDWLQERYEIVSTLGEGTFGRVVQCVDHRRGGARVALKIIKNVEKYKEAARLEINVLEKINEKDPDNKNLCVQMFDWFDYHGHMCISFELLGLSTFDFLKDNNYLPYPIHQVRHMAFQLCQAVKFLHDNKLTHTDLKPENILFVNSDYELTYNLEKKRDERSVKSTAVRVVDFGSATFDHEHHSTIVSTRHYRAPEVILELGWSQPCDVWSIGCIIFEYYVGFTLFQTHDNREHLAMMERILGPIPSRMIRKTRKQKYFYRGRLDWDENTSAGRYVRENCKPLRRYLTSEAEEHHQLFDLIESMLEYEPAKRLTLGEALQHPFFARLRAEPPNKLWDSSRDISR
Assay [9] addresses T3, Mitogen-activated protein kinase kinase kinase 12 (Homo sapiens) (UniProt Q12852).
T3 sequence (whole entry): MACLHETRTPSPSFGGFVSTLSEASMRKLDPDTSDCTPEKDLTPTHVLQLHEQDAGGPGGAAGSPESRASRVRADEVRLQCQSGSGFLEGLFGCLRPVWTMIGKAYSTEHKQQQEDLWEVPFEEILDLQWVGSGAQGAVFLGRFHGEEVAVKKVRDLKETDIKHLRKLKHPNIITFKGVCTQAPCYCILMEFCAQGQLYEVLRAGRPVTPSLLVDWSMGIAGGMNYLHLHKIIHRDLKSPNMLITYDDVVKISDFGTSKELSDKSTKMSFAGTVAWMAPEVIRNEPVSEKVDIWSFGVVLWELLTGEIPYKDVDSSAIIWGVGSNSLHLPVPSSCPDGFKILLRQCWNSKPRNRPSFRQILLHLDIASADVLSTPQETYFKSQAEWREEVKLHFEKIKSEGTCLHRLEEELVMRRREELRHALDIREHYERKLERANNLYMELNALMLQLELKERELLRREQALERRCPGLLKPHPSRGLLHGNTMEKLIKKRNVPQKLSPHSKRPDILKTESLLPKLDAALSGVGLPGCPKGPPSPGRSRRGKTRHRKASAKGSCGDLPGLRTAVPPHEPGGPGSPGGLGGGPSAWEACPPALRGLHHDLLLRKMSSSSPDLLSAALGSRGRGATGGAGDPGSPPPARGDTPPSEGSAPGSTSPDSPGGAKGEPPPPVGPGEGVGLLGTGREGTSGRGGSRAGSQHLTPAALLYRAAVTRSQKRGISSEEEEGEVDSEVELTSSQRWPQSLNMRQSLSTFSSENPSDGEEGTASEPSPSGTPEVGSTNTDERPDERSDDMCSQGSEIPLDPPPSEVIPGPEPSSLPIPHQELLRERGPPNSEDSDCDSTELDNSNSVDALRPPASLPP
Put plainly: Selectivity interaction (KinomeScan (DiscoverX)) EUB0001619a MAP3K12. As to conditions: at 1 µM.

Assay [10] concerns the target Serine/threonine-protein kinase 10 (Homo sapiens) (UniProt O94804). The assay can be described thus: Selectivity interaction (Kinase panel (KiNativ target engagement assay in Jurkat cells)) EUB0001635a STK10. The class given is cell-based. The note with it: Selectivity number of off-targets 0.0, Selectivity number of targets 233.0, Source Knowledge https://www.sciencedirect.com/science/article/pii/S2451945619300674?via%3Dihub, at 1 µM.

Sequence of Dual specificity mitogen-activated protein kinase kinase 2 (Homo sapiens) (P36507 whole entry): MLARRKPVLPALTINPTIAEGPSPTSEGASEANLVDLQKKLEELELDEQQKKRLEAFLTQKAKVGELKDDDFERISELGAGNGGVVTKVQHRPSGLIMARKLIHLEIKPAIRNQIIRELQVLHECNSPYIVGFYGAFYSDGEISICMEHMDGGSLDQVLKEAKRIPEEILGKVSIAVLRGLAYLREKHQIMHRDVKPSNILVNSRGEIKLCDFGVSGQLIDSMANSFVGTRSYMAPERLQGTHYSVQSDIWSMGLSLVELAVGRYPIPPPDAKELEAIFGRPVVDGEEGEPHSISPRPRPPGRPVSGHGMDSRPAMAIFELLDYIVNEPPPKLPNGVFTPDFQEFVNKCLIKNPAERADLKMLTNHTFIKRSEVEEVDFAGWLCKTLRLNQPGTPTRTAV
Sequence of Serine/threonine-protein kinase B-raf (Homo sapiens), P15056 [V600E] (P15056 whole entry V600E): as the sequence (P15056 whole entry) above, with V600E counted along it
Sequence of Serine/threonine-protein kinase 10 (Homo sapiens) (O94804 whole entry, looked up): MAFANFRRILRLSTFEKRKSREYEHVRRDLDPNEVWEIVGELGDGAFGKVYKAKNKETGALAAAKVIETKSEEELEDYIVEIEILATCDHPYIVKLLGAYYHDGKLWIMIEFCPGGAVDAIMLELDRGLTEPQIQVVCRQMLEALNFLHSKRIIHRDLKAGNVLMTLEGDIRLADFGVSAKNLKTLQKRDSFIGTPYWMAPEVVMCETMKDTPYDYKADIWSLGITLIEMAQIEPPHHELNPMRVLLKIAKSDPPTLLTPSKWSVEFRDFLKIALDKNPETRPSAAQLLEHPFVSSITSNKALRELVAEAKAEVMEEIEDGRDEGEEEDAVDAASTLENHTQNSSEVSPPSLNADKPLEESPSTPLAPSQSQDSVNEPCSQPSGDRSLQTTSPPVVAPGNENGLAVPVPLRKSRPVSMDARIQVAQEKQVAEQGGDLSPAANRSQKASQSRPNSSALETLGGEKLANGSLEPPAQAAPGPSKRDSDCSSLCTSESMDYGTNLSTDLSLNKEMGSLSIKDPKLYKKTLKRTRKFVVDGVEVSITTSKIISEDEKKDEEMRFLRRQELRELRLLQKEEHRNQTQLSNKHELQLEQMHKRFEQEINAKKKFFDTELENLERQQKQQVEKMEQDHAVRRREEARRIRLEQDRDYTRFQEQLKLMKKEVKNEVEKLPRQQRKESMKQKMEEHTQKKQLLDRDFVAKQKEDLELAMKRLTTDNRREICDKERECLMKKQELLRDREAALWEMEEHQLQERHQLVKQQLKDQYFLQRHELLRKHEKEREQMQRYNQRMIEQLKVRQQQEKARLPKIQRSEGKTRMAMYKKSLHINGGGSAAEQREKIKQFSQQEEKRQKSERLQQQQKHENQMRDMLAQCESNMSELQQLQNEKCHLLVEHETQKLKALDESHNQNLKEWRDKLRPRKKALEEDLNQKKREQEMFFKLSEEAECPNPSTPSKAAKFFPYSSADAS
Sequence of Vascular endothelial growth factor receptor 1 (Homo sapiens) (P17948 whole entry): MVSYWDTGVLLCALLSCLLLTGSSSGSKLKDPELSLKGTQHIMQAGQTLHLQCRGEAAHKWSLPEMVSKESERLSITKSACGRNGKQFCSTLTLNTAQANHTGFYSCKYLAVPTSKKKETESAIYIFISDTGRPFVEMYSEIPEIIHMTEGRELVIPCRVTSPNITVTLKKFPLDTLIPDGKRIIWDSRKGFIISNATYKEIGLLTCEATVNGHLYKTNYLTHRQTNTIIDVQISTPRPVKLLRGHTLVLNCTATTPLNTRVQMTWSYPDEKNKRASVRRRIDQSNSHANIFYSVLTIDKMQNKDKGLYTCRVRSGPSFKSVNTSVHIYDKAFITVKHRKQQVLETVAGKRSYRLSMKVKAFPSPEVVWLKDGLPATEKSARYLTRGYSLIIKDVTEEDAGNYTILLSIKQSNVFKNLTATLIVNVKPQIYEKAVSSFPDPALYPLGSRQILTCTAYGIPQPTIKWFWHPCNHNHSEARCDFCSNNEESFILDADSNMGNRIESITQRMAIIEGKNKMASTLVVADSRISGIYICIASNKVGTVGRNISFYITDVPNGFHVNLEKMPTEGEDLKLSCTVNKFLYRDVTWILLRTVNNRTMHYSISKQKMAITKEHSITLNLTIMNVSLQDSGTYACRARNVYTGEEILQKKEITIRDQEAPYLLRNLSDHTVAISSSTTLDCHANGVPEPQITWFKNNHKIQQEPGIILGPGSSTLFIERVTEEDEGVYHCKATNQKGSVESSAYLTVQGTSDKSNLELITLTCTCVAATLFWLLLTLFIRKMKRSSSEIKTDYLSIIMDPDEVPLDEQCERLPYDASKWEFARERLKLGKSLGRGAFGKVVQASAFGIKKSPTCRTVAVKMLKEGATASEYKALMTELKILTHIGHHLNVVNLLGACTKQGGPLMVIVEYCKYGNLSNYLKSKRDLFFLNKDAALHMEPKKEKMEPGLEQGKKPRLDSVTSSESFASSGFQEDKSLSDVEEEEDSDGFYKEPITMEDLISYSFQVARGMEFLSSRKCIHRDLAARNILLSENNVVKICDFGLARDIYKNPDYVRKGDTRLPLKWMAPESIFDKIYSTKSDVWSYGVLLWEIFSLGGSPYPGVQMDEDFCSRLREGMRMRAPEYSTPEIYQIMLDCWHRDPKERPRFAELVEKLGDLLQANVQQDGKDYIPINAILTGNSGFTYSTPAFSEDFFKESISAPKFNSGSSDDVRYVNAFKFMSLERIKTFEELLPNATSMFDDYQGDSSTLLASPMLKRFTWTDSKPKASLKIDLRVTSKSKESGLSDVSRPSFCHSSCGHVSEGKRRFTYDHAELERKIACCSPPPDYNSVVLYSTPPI

As for `C=CC(=O)Nc1cccc(C(=O)Nc2ccc(Nc3cc(-c4[nH]c(SC)nc4C)ccn3)cc2)c1`, the % of control in assay [1] (at 1 µM) is 76%; in assay [1] (at 5 µM), 36%.

In assay [2], `CN(C)C/C=C/C(=O)Nc1ccc(C(=O)N2CCCC(Nc3ncc(Cl)c(-c4c[nH]c5ccccc45)n3)C2)cc1` (stereo unspecified) yielded a % of control of 89%.

Molecule `Nc1cnc(N2CCc3cc(S(=O)(=O)Nc4c(F)cc(Cl)cc4F)cc(N4CCCC4=O)c32)nc1` [TP-020n] registered a % of control in assay [3] of 100%.

With `CNC(=O)Nc1ccc(-c2nc(N3CC4CCC(C3)O4)c3cnn(C4CCC5(CC4)OCCO5)c3n2)cc1`, the % of control in [4] was 100%.

The molecule `COc1cc(N(C)c2ccnc3ccc(C(F)(F)F)cc23)cc(OC)c1OC` had a % binding in [5] of 100%.

For the molecule `N#Cc1cccc(-c2c[nH]c3ncnc(N4CCOCC4)c23)c1`, the % of control in assay [6] was found to be 80%; in [7] it was 69%; in assay [8], 64%; in assay [9] it was 96%.

`C=CC(=O)Nc1ccc(C(=O)Nc2[nH]nc3c2CN(C(=O)N[C@H](CN(C)C)c2ccccc2)C3(C)C)cc1`: the % of engagement in assay [10] was -1.6%.
